Results from patent US9121022B2, “Method for controlling herbicide-resistant plants” (priority 2010, dated 2015).
“Also recorded” adds a separate entry of the source. d = 2'-deoxy (DNA); r = 2'-OH (RNA)

Assays:
[1] = tested on: Palmer amaranth (EPSPS copy numbers 16 to 112); experiment: combinations of EPSPS, TIF and ddATPase polynucleotides with glyphosate, protocols of Table 12 (Example 26, Table 13); format: in vivo, Palmer amaranth (Amaranthus palmeri)
Experimental: The polynucleotides listed in Table 11 were produced by synthesis or by in vitro transcription.
Solutions of the polynucleotides were prepared and applied to the leaves of Palmer amaranth using the protocols described in Table 12.

[2] = tested on: Nicotiana benthamiana phytoene desaturase; experiment: topical PDS oligonucleotides/polynucleotides on tobacco, bleaching and chlorophyll (Example 10); format: in vivo; details: for Chlorophyll (day 7) / Chlorophyll (day 12): 6 spots on the apical area, lower values indicate suppression of phytoene desaturase; for systemic regulation (suppression) of the target phytoene desaturase gene: conclusion from Table 4; for Bleaching (day 5): day 5 after treatment
Source text: The target gene used was a Nicotiana benthamiana phytoene desaturase (SEQ ID NO:2), shown in FIG. 10; the segment consisting of nucleotides 421-1120 of SEQ ID NO:2 (underlined text in FIG. 10) was used to design a 700-mer dsRNA polynucleotide (“PDS 700-mer”) and the segment consisting of nucleotides 914-1113 of SEQ ID NO:2 (bolded underlined text in FIG. 10) was used to design a 200-mer dsRNA polynucleotide (“PDS 200-mer”). FIG. 11 schematically depicts the location of the sequences of these oligonucleotides and polynucleotides in relation to the […] (SEQ ID NO:2) sequence. Non-plant sequences obtained from corn rootworm (“CRW”), SEQ ID NOs:27, 28, 29, and 30 were used as non-homologous controls. Some of the polynucleotides included a T7 promoter sequence (indicated by lower-case text in Table 3) that is a promoter recognized by a bacteriophage T7 RNA polymerase.
The following procedure was used for all assays described in this example. Four-week old Nicotiana benthamiana plants were used in all assays. Plants were treated with 0.1% SILWET L-77® brand surfactant solution freshly made with ddH2O. Two fully expanded leaves per plant (one cotyledon, one true leaf) were dipped into the SILWET L-77® brand surfactant solution for a few seconds, and allowed to dry for 15-30 minutes before application of the polynucleotide composition. Final concentration for each oligonucleotide or polynucleotide was 25 microM (in 0.01% SILWET L-77® brand surfactant, 5 mM sodium phosphate buffer, pH 6.8) unless otherwise stated. 20 microliters of the solution was applied to the top surface of each of the two pre-treated leaves to provide a total of 40 microliters (1 nmol oligonucleotide or polynucleotide) for each plant. Leaf bleaching was observed 3 days post treatment.
FIG. 13 illustrates phenotypes observed at day 12 after treatment in another assay of the effect from twelve combinations of polynucleotides or oligonucleotides (see Table 4). Table 4 also lists observations of visible bleaching of the plants at day 5 after treatment and the results of chlorophyll measurements taken at days 7 and 12 after treatment. Chlorophyll measurements are an indication of suppression of the target gene phytoene desaturase, and measurements were taken at 6 spots on the apical area, focussing on visibly bleached leaves or (in plants without visible bleaching) on leaves in equivalent locations on the plants; lower chlorophyll measurement values indicate suppression of phytoene desaturase.

[3] = tested on: Palmer amaranth phytoene desaturase (PDS); experiment: sequence specificity of PDS dsRNA on Palmer amaranth, leaf bleaching (Example 11); format: in vivo; details: for bleaching of leaves: 0.6 micromolar, 40 microliters per plant, 3 days post treatment; for bleaching of leaves (FIG. 17): separate assay
Source text: Palmer amaranth phytoene desaturase (PDS) has the sequence […] […] […] […] […] […] […] […] […] […] […] […] […] […] […] […] […] […] […] […] […] […] […] […] (SEQ ID NO:37). A 678 base pair dsRNA polynucleotide with an anti-sense strand capable of hybridizing to the RNA encoded by the nucleotides at positions 317-994 (shown as underlined text) in SEQ ID NO:37 and a 198 base pair dsRNA polynucleotide with an anti-sense strand capable of hybridizing to the RNA encoded by the nucleotides at positions 797-994 (shown as italicized and underlined text) in SEQ ID NO:37 were synthesized.
Nicotiana benthamiana phytoene desaturase has the sequence […] […] […] […] […] […] […] […] […] […] […] […] […] […] […] […] […] […] […] […] […] […] […] […] […] […] (SEQ ID NO:38). A 685 base pair dsRNA polynucleotide with an anti-sense strand capable of hybridizing to the RNA encoded by the nucleotides at positions 421-1105 (shown as underlined text) in SEQ ID NO:38 and a 192 base pair dsRNA polynucleotide with an anti-sense strand capable of hybridizing to the RNA encoded by the nucleotides at positions 914-1105 (shown as italicized and underlined text) in SEQ ID NO:38 were synthesized.
Palmer amaranth plants having 16 copies of EPSPS and 5-8 inches high were treated with 0.1% SILWET L-77® brand surfactant solution freshly made with ddH2O. Four fully expanded leaves per plant were dipped into the SILWET L-77® brand surfactant solution for a few seconds, and allowed to dry for 30 minutes to 1 hour before application of the polynucleotide composition. Individual polynucleotide solutions were made for each of the 678 bp Palmer PDS dsRNA, 198 bp Palmer PDS dsRNA, the 685 bp Nicotiana benthamiana PDS dsRNA, and the 192 bp Nicotiana benthamiana PDS dsRNA (0.6 micromolar polynucleotide in 0.01% SILWET L-77® brand surfactant, 5 mM sodium phosphate buffer, pH 6.8). 10 microliters of polynucleotide solution (or buffer as a control) was applied to the top surface of each of the four pre-treated leaves per plant to provide a total of 40 microliters for each plant. Plants were kept in a growth chamber, and leaf bleaching was observed 3 days post treatment.

[4] = Protocol 3, 29 g/acre, copy number 16, 13 DAT

| Molecule | Chlorophyll (day 7) [2] | Chlorophyll (day 12) [2] | systemic regulation (suppression) of the target phytoene desaturase gene [2] | Bleaching (day 5) [2] | other results |
| --- | --- | --- | --- | --- | --- |
| IDT [2]: Palmer/EPSPS dsRNA, SEQ ID NO. 85, 86 (chain 1 AGUUGGUGGGCAAUCAUCAAUUGTT; chain 2 AACAAUUGAUGAUUGCCCACCAACUCU; chain 1: sugars from the 5' end r23 d2, backbone not given here; chain 2: RNA, backbone not given here) | – | – | – | – | Results: control [1, 4]: 0% control |
| 6 (sense ATCCATGATATCGTGAACATC; antisense GCAAAGAAAAATGCGTCG; DNA, backbone not given here) [compound 6] | 34.2 | 38.2 | did not suppress | not yet | – |
| Treatment 8: SEQ ID NO: 22, 23; anti-sense 22-mer oligos without T7 promoter (antisense 1 CATCTCCTTTAATTGTACTGCC; antisense 2 TTTAATTGTACTGCCATTATTC; listed as DNA, chemistry not given here) | – | – | – | – | bleaching of apical leaves (FIG. 15) ([2]; another assay, listed as PDS anti-sense): strong bleaching; also recorded: apical leaf bleaching observed |
| 7 (sense 1 GCAAGAGATGTCCTAGGTGGG; sense 2 ACAGATTTCTTCAGGAGAAACATGG; DNA, backbone not given here) [compound 7] | 32.0 | 41.1 | did not suppress | not yet | – |
| IDT [1]: Palmer/EPSPS dsRNA, SEQ ID NO. 83, 84; 25-mer sense with two 3′ deoxyribonucleotides, 27-mer anti-sense (sense CUACCAUCAACAAUGGUGUCCAUAC; antisense GUAUGGACACCAUUGUUGAUGGUAGUA; sense: sugars from the 5' end r23 d2, backbone not given here; antisense: RNA, backbone not given here) | – | – | – | – | Results: stunted [1, 4]: 51% stunted |
| IDT [3]: Palmer/EPSPS dsRNA, SEQ ID NO. 87, 88 (chain 1 GGUCGACAACUUGCUGUAUAGUGAT; chain 2 AUCACUAUACAGCAAGUUGUCGACCUC; chain 1: sugars from the 5' end r23 d2, backbone not given here; chain 2: RNA, backbone not given here) | – | – | – | – | Results: stunted [1, 4]: 51% stunted |
| IDT [5]: Palmer/EPSPS dsRNA (21-mer) with blunt ends, SEQ ID NO. 91, 92 (chain 1 AACAUGAACAAAAUGCCAGAU; chain 2 AUCUGGCAUUUUGUUCAUGUU; RNA, backbone not given here) | – | – | – | – | Results: stunted ([1]; Protocol 1, 0.29 g/acre, copy number 33, 54, 55, 18 DAT): 71%; Results: killed ([1]; Protocol 1, 2.9 g/acre each, copy number 34, 36, 54, 22 DAT): 100% kill; Results: killed ([1]; Protocol 1, 2.9 g/acre, copy number 33, 54, 55, 18 DAT): 100% killed |
| 8 (antisense 1 CATCTCCTTTAATTGTACTGCC; antisense 2 TTTAATTGTACTGCCATTATTC; DNA, backbone not given here) [compound 8] | 11.3 | 3.2 | effective | strong | – |
| 9 (nucleic acid, DNA, backbone not given here) chain 1: GCAAGAGATGTCCTAGGTGGG chain 2: ACAGATTTCTTCAGGAGAAACATGG chain 3: CATCTCCTTTAATTGTACTGCC chain 4: TTTAATTGTACTGCCATTATTC chain 5: CACTTCCATCCTCATTCAGCTCGAT chain 6: ACACCTCATCTGTCACCCTATCAG chain 7: CAGTCTCGTACCAATCTCCATCAT | 30.2 | 34.4 | – | not yet | – |
| Treatment 10: dsRNA corresponding to nucleotides 914-1113 of SEQ ID NO:2 (nucleic acid, listed as Nicotiana benthamiana, double-stranded RNA) ACAGATTTCTTCAGGAGAAACATGGTTCAAAAATGGCCTTTTTAGATGGTAACCCTCCTGAGAGACTTTGCATGCCGATTGTGGAACATATTGAGTCAAAAGGTGGCCAAGTCAGACTAAACTCACGAATAAAAAAGATCGAGCTGAATGAGGATGGAAGTGTCAAATGTTTTATACTGAATAATGGCAGTACAATTAAA | – | – | also effective | – | bleaching of apical leaves (FIG. 12A) ([2]; 200-mer dsRNA at 0.6 microM, oligonucleotides 25 microM each): Bleaching of apical leaves was observed |
| 198 bp Palmer PDS dsRNA: dsRNA to positions 797-994 of Palmer amaranth PDS (SEQ ID NO:37) (nucleic acid, listed as Amaranthus palmeri, complementary strand) sense: ACCGATTCCTGCAGGAGAAACATGGTTCTAAGATGGCCTTCCTAGACGGAAACCCTCCAGAGAGGCTGTGCATGCCTATTGTTAAACACATCGAGTCACTAGGTGGTGAAGTTAAACTTAACTCTCGTATACAAAAGATTCAGTTGGACCAGAGTGGAAGCGTGAAGAGTTTTTTGCTAAATAACGGGAGGGAAATAC | – | – | – | – | bleaching of leaves [3]: showed bleaching of leaves; bleaching of leaves (FIG. 17) [3]: apical leaf bleaching observed |
| 678 bp Palmer PDS dsRNA: dsRNA to positions 317-994 of Palmer amaranth PDS (SEQ ID NO:37) (nucleic acid, listed as Amaranthus palmeri, complementary strand) sense: TAGGAGGAAAGGTTGCAGCGTGGAAGGATGAGGATGGTGACTGGTATGAGACTGGGCTACATATATTCTTTGGGGCATATCCAAATGTCCAAAATCTATTTGGAGAACTTGGTATAAATGACCGACTGCAATGGAAGGAGCACTCTATGATTTTTGCAATGCCCAGCAAGCCCGGTGAATTCAGTCGCTTTGATTTTCCCGAAATCCTGCCTGCACCATTAAATGGCATATGGGCAATCCTAAGAAATAATGAAATGCTAACCTGGCCAGAAAAAATCAAGTTTGCCATTGGCTTGTTGCCTGCTATGGCAGGCGGACAGTCATATGTTGAAGCACAAGATGGTTTGAGTGTCCAAGAGTGGATGAGAAAACAAGGAGTACCCGATCGTGTAACTGATGATGTGTTTATTGCCATGTCAAAGGCACTGAACTTCATAAATCCCGATGAACTTTCAATGCAGTGCATCTTGATTGCTCTGAACCGATTCCTGCAGGAGAAACATGGTTCTAAGATGGCCTTCCTAGACGGAAACCCTCCAGAGAGGCTGTGCATGCCTATTGTTAAACACATCGAGTCACTAGGTGGTGAAGTTAAACTTAACTCTCGTATACAAAAGATTCAGTTGGACCAGAGTGGAAGCGTGAAGAGTTTTTTGCTAAATAACGGGAGGGAAATAC | – | – | – | – | bleaching of leaves [3]: showed bleaching of leaves; bleaching of leaves (FIG. 17) [3]: apical leaf bleaching observed |
